From patent publication US9586995B2, “Compositions and methods of use for (pro)renin receptor” (University of Utah, priority 2012, dated 2017)

How the values were obtained:
renal medullary PRR = renal medullary PRR (Rattus norvegicus, UniProt Q6AXS4); assay: AngII-induced hypertension in uninephrectomized SD rats, telemetry MAP; type: in vivo; conditions: AngII 100 ng/kg/min s.c. alone or with intramedullary PRO20 120 μg/kg/d; day 0 MAP 108+5.8
Protocol: FIGS. 26A, 26B, 26C, 26D, and 26E show the characterization of PRO20 and examination of its effect on AngII-induced hypertension. Comparison of PRO20 (B and D) and the HRP (A and C) in inhibiting prorenin-induced signaling. Primary rat IMCD cells were pretreated for 1 h with PRO20 (1.5 μM) or the HRP (2.0 μM) and then were exposed to 100 nM prorenin for 10 min. ERK1/2 phosphorylation was determined by immunoblotting. (E) Effect of intramedullary delivery of PRO20 on AngII-induced hypertension. Uninephrectomized SD rats were divided into the following three groups: (1) AngII, (2) AngII+IM PRO (intramedullary PRO20 infusion), and (3) AngII+IV PRO20 (intravenous PRO20 infusion). AngII was subcutaneously infused at 100 ng/kg/min via an osmotic mini-pump. IM PRO (PRO20 at 120 μg/kg/d) was performed via a catheter chronically implanted in the renal medulla. To control the spillover, IV PRO (PRO20 at 120 μg/kg/d) was performed via catheterization of jugular vein. Telemetry was performed to monitor mean arterial pressure (MAP) and it was turned on 4 h per day from 5:00 PM to 9:00 PM for 7 days. #p<0.01 vs. intravenous PRO20; *, p<0.05 vs. AngII alone. N=3-6 per group. Data are mean+SE. […]

α-ENaC = assay: Renal ENaC expression in AngII-infused rats (immunoblotting, qRT-PCR); type: in vivo, rat; conditions: following AngII infusion
Protocol: FIGS. 28A, 28B, 28C, 28D, 28E, 28F, 28G and 28H show the effect of IMPRO on renal inner medullary ENaC expression during AngThinduced hypertension. The expression of the three subunits of ENaC (α-, β-, and γ-) in the inner medulla of control, AngII and AngII+IM RPO rats was determined by immunobotting (A-E) and qRT-PCR (F-H). N=6 per group. Data are mean+SE.
Renal tissues were lysed and subsequently sonicated in PBS that contained 1% Triton x-100, 250 μM phenylmethanesulfonyl fluoride (PMSF), 2 mM EDTA, and 5 mM dithiothrietol (DTT) (pH 7.5). Protein concentrations were determined by the use of Coomassie reagent. […] of protein for each sample was denatured in boiling water for 10 min, then separated by SDS-PAGE, and transferred onto nitrocellulose membranes. The blots were blocked 1 h with 5% nonfat dry milk in Tris-buffered saline (TBS), followed by incubation for overnight with primary antibody. […] The blots were quantitated by using Imagepro-plus. […]
Epithelial sodium channel (ENaC) is the major sodium channel on the apical membrane of the CD Immunoblotting and qRT-PCR analysis of renal ENaC expression was performed. […] In contrast, α-ENaC protein abundance in the cortex was unaffected. qRT-PCR detected 1.6-fold increase of α-ENaC mRNA expression in the inner medulla, which was abolished by IM PRO (FIG. 28F). […]

[1] = Plasma and urinary aldosterone in AngII-infused rats; type: in vivo, rat; conditions: following AngII infusion
Protocol: FIGS. 31A, B, and C show the role of PRR in AngII-induced aldosterone production in vivo and in vitro. Plasma aldosterone concentrations (A) and urinary aldosterone excretion (B) were determined in control, AngII, AngII+IM PRO20, and AngII+IV PRO20 rats. The direct action of PRO20 in aldosterone regulation was tested in primary culture of rat IMCD cells (C). For the in vitro study, the cells were exposed to vehicle, AngII, or AngII+PRO20 and the medium were assayed for aldosterone release. N=3-6 per group. Data are means±SE.
Under anesthesia, blood was collected puncturing vena cava, and plasma was recovered by centrifugation. At the end of experiments, animals were placed in metabolic cages for urine collections. The renal inner medulla was homogenized in 2.6 mM EDTA, 3.4 mM hydroxyquinoline, 5 mM ammonium acetate, 200 μM PMSF, and 0.256 μM dimercaprol. […] Renin activity in urine, tissue homogenates, and cell culture medium was determined by measurement of AngI generation using an ELISA kit and it was performed in the native condition, active renin content with excessive angiotensinogen, and total renin content with excessive angiotensinogen plus trypsinization as previously described. Aldosterone concentrations in plasma, urine, and cell culture medium were measured using a commercial ELISA kit (Cat#:10004377, Cayman Chemical). […]

Sequence of renal medullary PRR (Q6AXS4 18-350): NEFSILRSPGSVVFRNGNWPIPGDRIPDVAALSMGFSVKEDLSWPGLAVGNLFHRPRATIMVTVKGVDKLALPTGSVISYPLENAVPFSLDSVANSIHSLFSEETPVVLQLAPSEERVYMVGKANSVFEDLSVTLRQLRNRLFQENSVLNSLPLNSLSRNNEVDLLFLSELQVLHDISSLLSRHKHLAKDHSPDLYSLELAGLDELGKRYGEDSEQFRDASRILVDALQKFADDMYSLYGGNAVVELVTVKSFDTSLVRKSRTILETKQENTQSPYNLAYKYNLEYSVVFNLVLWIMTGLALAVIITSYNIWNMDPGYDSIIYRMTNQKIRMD

Angiotensin II (DRVYIHPF; Angiotensin-2; UniProt P01019 25-32, looked up) [AngII]
MAP on day 7 (renal medullary PRR): 164.7+6.2 mmHg
increase in renal medullary α-ENaC protein abundance (α-ENaC; immunoblotting): 2.2 fold
increase of α-ENaC mRNA expression in the inner medulla (α-ENaC; qRT-PCR): 1.6 fold
increase in aldosterone levels in the plasma [1]: 60%
increase in aldosterone levels in the urine [1]: 3.2 fold
